≈ marks a conversion by molar mass, not a printed value. Each block holds one compound with its values, some of them ahead of it.
Columns and labels:
HCT-116 [1] = test: Cytotoxicity against human HCT-116 cells assessed as inhibition of cell growth incubated for 48 hrs by MTT assay; format: functional, cell-based; conditions: HCT-116, 48 h
SMMC-7721 = test: Cytotoxicity against human SMMC-7721 cells assessed as inhibition of cell growth incubated for 48 hrs by MTT assay; format: functional, cell-based; conditions: SMMC-7721, 48 h
K562 [2] = test: Cytotoxicity against human K562 cells assessed as inhibition of cell growth incubated for 48 hrs by MTT assay; format: functional, cell-based; conditions: K562, 48 h
Clupea harengus = test: Binding affinity to herring DNA assessed as binding constant incubated for 30 mins by fluorescence based EtBr-UV absorption spectral analysis
SK-MEL-28 = test: Cytotoxicity against human SK-MEL-28 cells assessed as cell growth inhibition incubated for 48 hrs by sulforhodamine B reagent assay; format: functional, cell-based; conditions: SK-MEL-28, 48 h
HCT-116 [3] = test: Cytotoxicity against human HCT-116 cells assessed as cell growth inhibition incubated for 48 hrs by sulforhodamine B reagent assay; format: functional, cell-based; conditions: HCT-116, 48 h
DU-145 = test: Cytotoxicity against human DU-145 cells assessed as cell growth inhibition incubated for 48 hrs by sulforhodamine B reagent assay; format: functional, cell-based; conditions: DU-145, 48 h
NCI-H322M = test: Cytotoxicity against human NCI-H322M cells assessed as cell growth inhibition incubated for 48 hrs by sulforhodamine B reagent assay; format: functional, cell-based
U-251 = test: Cytotoxicity against human U-251 cells assessed as cell growth inhibition incubated for 48 hrs by sulforhodamine B reagent assay; format: functional, cell-based; conditions: U-251, 48 h
SK-MEL-5 = test: Cytotoxicity against human SK-MEL-5 cells assessed as cell growth inhibition incubated for 48 hrs by sulforhodamine B reagent assay; format: functional, cell-based; conditions: SK-MEL-5, 48 h
BT-549 = test: Cytotoxicity against human BT-549 cells assessed as cell growth inhibition incubated for 48 hrs by sulforhodamine B reagent assay; format: functional, cell-based; conditions: BT-549, 48 h
T47D = test: Cytotoxicity against human T47D cells assessed as cell growth inhibition incubated for 48 hrs by sulforhodamine B reagent assay; format: functional, cell-based
Hs-578T = test: Cytotoxicity against human Hs-578T cells assessed as cell growth inhibition incubated for 48 hrs by sulforhodamine B reagent assay; format: functional, cell-based
MCF7 [4] = test: Cytotoxicity against human MCF7 cells assessed as cell growth inhibition incubated for 48 hrs by sulforhodamine B reagent assay; format: functional, cell-based; conditions: MCF7, 48 h
OVCAR-4 = test: Cytotoxicity against human OVCAR-4 cells assessed as cell growth inhibition incubated for 48 hrs by sulforhodamine B reagent assay; format: functional, cell-based; conditions: OVCAR-4, 48 h
SF-539 = test: Cytotoxicity against human SF-539 cells assessed as cell growth inhibition incubated for 48 hrs by sulforhodamine B reagent assay; format: functional, cell-based; conditions: SF-539, 48 h
Malme-3M = test: Cytotoxicity against human Malme-3M cells assessed as cell growth inhibition incubated for 48 hrs by sulforhodamine B reagent assay; format: functional, cell-based
SW-620 = test: Cytotoxicity against human SW620 cells assessed as cell growth inhibition incubated for 48 hrs by sulforhodamine B reagent assay; format: functional, cell-based; conditions: SW-620, 48 h
SNB-75 = test: Cytotoxicity against human SNB-75 cells assessed as cell growth inhibition incubated for 48 hrs by sulforhodamine B reagent assay; format: functional, cell-based; conditions: SNB-75, 48 h
786-0 = test: Cytotoxicity against human 786-0 cells assessed as cell growth inhibition incubated for 48 hrs by sulforhodamine B reagent assay; format: functional, cell-based; conditions: 786-0, 48 h
RXF 393 = test: Cytotoxicity against human RXF 393 cells assessed as cell growth inhibition incubated for 48 hrs by sulforhodamine B reagent assay; format: functional, cell-based; conditions: RXF 393, 48 h
MDA-MB-231 [5] = test: Cytotoxicity against human MDA-MB-231 cells assessed as cell growth inhibition incubated for 48 hrs by sulforhodamine B reagent assay; format: functional, cell-based; conditions: MDA-MB-231, 48 h
EKVX = test: Cytotoxicity against human EKVX cells assessed as cell growth inhibition incubated for 48 hrs by sulforhodamine B reagent assay; format: functional, cell-based
KM12 = test: Cytotoxicity against human KM12 cells assessed as cell growth inhibition incubated for 48 hrs by sulforhodamine B reagent assay; format: functional, cell-based; conditions: KM12, 48 h
K562 [6] = test: Cytotoxicity against human K562 cells assessed as cell growth inhibition incubated for 48 hrs by sulforhodamine B reagent assay; format: functional, cell-based; conditions: K562, 48 h
HeLa [7] = test: Antiproliferative activity against human HeLa cells assessed as inhibition of cell proliferation by MTT assay; format: functional, cell-based
P388 [8] = test: Antiproliferative activity against mouse P388 cells assessed as inhibition of cell proliferation by MTT assay; format: functional, cell-based
A-375 [9] = test: Antiproliferative activity against human A-375 cells assessed as inhibition of cell proliferation by MTT assay; format: functional, cell-based
[10] = system: Staphylococcus epidermidis; test: Antibacterial activity against Staphylococcus epidermidis MTCC 435 assessed as inhibition of bacterial growth by agar well diffusion assay; format: functional
Staphylococcus aureus = test: Antibacterial activity against Staphylococcus aureus MTCC 96 assessed as inhibition of bacterial growth by agar well diffusion assay; format: functional
Escherichia coli = test: Antibacterial activity against Escherichia coli MTCC 443 assessed as inhibition of bacterial growth by agar well diffusion assay; format: functional
Calf thymus DNA [11] = test: Binding affinity to calf thymus DNA assessed as DNA intercalation by measuring change in melting temperature by thermal denaturation assay; format: nucleic-acid assay; conditions: Bos taurus
Pseudomonas aeruginosa = test: Antibacterial activity against Pseudomonas aeruginosa MTCC 741 assessed as inhibition of bacterial growth by agar well diffusion assay; format: functional
COLO 205 = test: Cytotoxicity against human COLO 205 cells assessed as inhibition of cell growth incubated for 72 hrs by SRB assay; format: functional, cell-based; conditions: COLO 205, 72 h, pooled result: one value given for 7 cell lines, strains, targets or settings
HCT-116 [12] = test: Cytotoxicity against human HCT-116 cells assessed as inhibition of cell growth incubated for 24 hrs by XTT assay; format: functional, cell-based; conditions: HCT-116, 24 h
PANC-1 = test: Cytotoxicity against human PANC-1 cells assessed as inhibition of cell growth incubated for 24 hrs by XTT assay; format: functional, cell-based; conditions: PANC-1, 24 h
Mus musculus [13] = test: Antitumor activity against mouse H22 cells xenografted in Kunming mouse assessed as decrease in tumor growth at 5 mg/kg administered as single injection via caudal vein for 7 consecutive days; format: functional; parameters: scale not given: the % may be the effect or the level left
Calf thymus DNA [14] = test: Binding affinity to calf thymus DNA assessed as binding constant by fluorescence based EtBr-displacement based UV-Vis spectroscopic analysis; format: nucleic-acid assay; conditions: Bos taurus
Homo sapiens [15] = organism: Homo sapiens; test: Binding affinity to double stranded [poly(dA-dT)2] DNA (unknown origin) assessed as change in melting temperature in presence of NaCl by thermal denaturation based spectrometer analysis
Homo sapiens [16] = organism: Homo sapiens; test: Binding affinity to double stranded [poly(dA-dT)2] DNA (unknown origin) assessed as change in melting temperature by thermal denaturation based spectrometer analysis
[17] = Selectivity ratio of IC50 for cytotoxicity against human HeLa cells under hypoxic condition to IC50 for cytotoxicity against human HeLa cells under aerobic condition; format: functional
P388 [18] = test: Cytotoxicity against mouse P388 cells assessed as cell growth inhibition by MTT assay; format: functional, cell-based
A549 [19] = test: Cytotoxicity against human A549 cells assessed as cell growth inhibition by MTT assay; format: functional, cell-based
HeLa [20] = test: Cytotoxicity against human HeLa cells assessed as cell growth inhibition by MTT assay; format: functional, cell-based
HL-60 = test: Cytotoxicity against human HL-60 cells assessed as cell growth inhibition by MTT assay; format: functional, cell-based
A-375 [21] = test: Cytotoxicity against human A-375 cells assessed as cell growth inhibition by MTT assay; format: functional, cell-based
MCF7 [22] = test: Cytotoxicity against human MCF7 cells assessed as cell growth inhibition by MTT assay; format: functional, cell-based
HCT-8 = test: Cytotoxicity against human HCT-8 cells assessed as cell growth inhibition by MTT assay; format: functional, cell-based
MCF7 [23] = test: Antiproliferative activity against human MCF7 cells assessed as inhibition of cell proliferation incubated for 72 hrs by MTT assay; format: functional, cell-based; conditions: MCF7, 72 h
Calf thymus DNA [24] = test: Binding affinity to calf thymus DNA assessed as apparent binding constant by fluorescence based EtBr-displacement assay; format: nucleic-acid assay; conditions: Bos taurus
A549 [25] = test: Antiproliferative activity against human A549 cells assessed as inhibition of cell proliferation incubated for 72 hrs by MTT assay; format: functional, cell-based; conditions: A549, 72 h
Jurkat = test: Antiproliferative activity against human Jurkat cells assessed as inhibition of cell proliferation incubated for 72 hrs by MTT assay; format: functional, cell-based
K562 [26] = test: Antiproliferative activity against human K562 cells assessed as inhibition of cell proliferation incubated for 48 hrs by MTT assay; format: functional, cell-based; conditions: K562, 48 h
Mus musculus [27] = test: Antitumor activity against mouse H22 cells xenografted in Kunming mouse assessed as decrease in tumor growth at 1 mg/kg administered as single injection via caudal vein for 7 consecutive days; format: functional; parameters: scale not given: the % may be the effect or the level left
MDA-MB-231 [28] = test: Antiproliferative activity against human MDA-MB-231 cells assessed as inhibition of cell proliferation incubated for 48 hrs by MTT assay; format: functional, cell-based; conditions: MDA-MB-231, 48 h
HepG2 = test: Antiproliferative activity against human HepG2 cells assessed as inhibition of cell proliferation incubated for 48 hrs by MTT assay; format: functional, cell-based; conditions: HepG2, 48 h
HCT-116 [29] = test: Antiproliferative activity against human HCT-116 cells assessed as inhibition of cell proliferation incubated for 48 hrs by MTT assay; format: functional, cell-based; conditions: HCT-116, 48 h

Compound: NCCCCNCCCN1C(=O)c2cccc3cccc(c23)C1=O
IC50 (HCT-116 [1]): 5450 nM | IC50 (SMMC-7721): 5450 nM | IC50 (K562 [2]): 5450 nM | Kb (Clupea harengus): 6.06 10^3/M

Compound: O=C1c2cccc3cccc(c23)C(=O)N1CCCCOc1ccc(-c2nc3ccc(N4CCOCC4)cc3[nH]2)cc1
IC50 (SK-MEL-28): 110 nM | IC50 (HCT-116 [3]): 110 nM | IC50 (DU-145): 110 nM | IC50 (NCI-H322M): 110 nM | IC50 (U-251): 110 nM | IC50 (SK-MEL-5): 110 nM | IC50 (BT-549): 110 nM | IC50 (T47D): 110 nM | IC50 (Hs-578T): 110 nM | IC50 (MCF7 [4]): 110 nM | IC50 (OVCAR-4): 110 nM | IC50 (SF-539): 110 nM | IC50 (Malme-3M): 110 nM | IC50 (SW-620): 110 nM | IC50 (SNB-75): 110 nM | IC50 (786-0): 110 nM | IC50 (RXF 393): 110 nM | IC50 (MDA-MB-231 [5]): 110 nM | IC50 (EKVX): 110 nM | IC50 (KM12): 110 nM | IC50 (K562 [6]): 110 nM

Compound: CN(C)CCN1C(=O)c2cccc3cc(N)cc(c23)C1=O [AMONAFIDE]
IC50 (HCT-116 [12]): 2700 nM | IC50 (PANC-1): 2700 nM | Activity (Mus musculus [13]): 43.73%

Compound: COc1ccc2c(CC(=O)OCCN3C(=O)c4cccc5c(N(C)C)ccc(c45)C3=O)c(C)n(C(=O)c3ccc(Cl)cc3)c2c1
Ratio IC50 [17]: 1.3 | IC50 (P388 [18]): 13900 nM | IC50 (A549 [19]): 13900 nM | IC50 (HeLa [20]): 13900 nM | IC50 (HL-60): 13900 nM | IC50 (A-375 [21]): 13900 nM | IC50 (MCF7 [22]): 13900 nM | IC50 (HCT-8): 13900 nM

Compound: Cl.Cl.Cl.Cl.NCCCNCCCCNCCCNCC(=O)NCCCN1C(=O)c2cccc3cccc(c23)C1=O
IC50 (K562 [26]): 2860 nM | Activity (Mus musculus [27]): 70.92% | IC50 (MDA-MB-231 [28]): 2860 nM | IC50 (HepG2): 2860 nM | IC50 (HCT-116 [29]): 2860 nM

More lines, main results first:

IC50 (HeLa [7]): 6700 nM | IC50 (P388 [8]): 6700 nM | IC50 (A-375 [9]): 6700 nM
Compound: CN(C)CCNc1ccc2c3c(cccc13)C(=O)N(c1ccc(S(=O)(=O)NC(=O)c3ccc(N4CCN(CC=C(c5ccccc5)c5ccccc5)CC4)cc3)cc1)C2=O

MIC [10]: 18.8 µg/mL (≈ 38 µM) | MIC (Staphylococcus aureus): 18.8 µg/mL (≈ 38 µM) | MIC (Escherichia coli): 18.8 µg/mL (≈ 38 µM) | ΔTm (Calf thymus DNA [11]): 3.8 °C | MIC (Pseudomonas aeruginosa): 18.8 µg/mL (≈ 38 µM)
Compound: O=C1c2cccc3cccc(c23)C(=O)N1c1nc(-c2cc3cc(Cl)cc(Cl)c3oc2=O)cs1
IC50 (COLO 205): 190 nM

K (Calf thymus DNA [14]): 6.5 10^6/M | ΔTm (Homo sapiens [15]): 11 °C | ΔTm (Homo sapiens [16]): 23 °C
Compound: O=C1c2cccc3c([N+](=O)[O-])ccc(c23)C(=O)N1c1cccc(-c2cc[n+]3c(c2)-c2cccc[n+]2CC3)c1

IC50 (MCF7 [23]): 5670 nM | Kapp (Calf thymus DNA [24]): 3.1 10^6/M | IC50 (A549 [25]): 5670 nM | IC50 (Jurkat): 5580 nM
Compound: O=C1c2cccc3cccc(c23)C(=O)N1CCCCCCNCc1ccccn1

From ChEMBL document CHEMBL5244223, “l,8-Naphthalimide based DNA intercalators and anticancer agents. A systematic review from 2007 to 2017” (Eur J Med Chem, 2018)
